Assay results: patent publication US10407467B2, “Polymyxin derivatives and their use in combination therapy together with different antibiotics” (priority 2013, dated 2019)
Structures can show the parent of a compound that is named as a salt. Bridge positions count the residues as written; N and C are the ends. Square brackets hold non-standard residues; d marks the D form. Peptide text beside a SMILES is read from it. * marks the point of attachment. ξ: configuration not given here. X17 = CN1CCN(c2ccc(C(=O)*)cc2)CC1; X8 = N[C@@H]1CC[C@H](C(=O)*)C1; Thr(3ξ) = CC(O)[C@H](N)C(=O)O; X13 = O=C(CC[C@@H]1CCCN1)*; X9 = CC(C)[C@H](N)CCC(=O)*; Dab = NCC[C@H](N)C(=O)O; X14 = CC(C)(N)CCC(=O)*; Inp = O=C(O)C1CCNCC1; βAla = NCCC(=O)O

Experiments:
Type in all cases: cell-based
Klebsiella pneumoniae [1] = experiment: MIC, compound in combination with a second agent (broth microdilution); conditions: 1:1 (wt:wt) combination with Rifampicin; for MIC K. pneumoniae NCTC 13438: strain NCTC 13438; for MIC K. pneumoniae ATCC 4352: strain ATCC 4352
Outline: (§1)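 Compound and second agent (e.g. rifampicin) were combined 1:1 w/w, compound weighed as its TFA or sulphate salt. Inoculum was a direct colony suspension from 18-24 hour Mueller-Hinton agar at 0.5 McFarland. MIC is the total drug concentration; lower of duplicates reported, modal value when tested repeatedly.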

Escherichia coli [2] = experiment: as above; conditions: 1:1 (wt:wt) combination with Rifampicin; for MIC E. coli NCTC9001: strain NCTC9001
Outline: as §1

Pseudomonas aeruginosa [3] = experiment: MIC, sole activity (no second agent); conditions: in the absence of Rifampicin; for MIC P. aeruginosa ATCC 27853: strain ATCC27853; for MIC P. aeruginosa ATCCCRM-9027: strain ATCCCRM-9027
Outline: (§2)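 Inoculum: direct colony suspension (18-24 h MH agar), 0.5 McFarland. Medium: cation-adjusted MHB. Up to 4 strains/species; reported relative to Polymyxin B.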

Klebsiella pneumoniae [4] = experiment: MIC, sole activity (no second agent); conditions: in the absence of Rifampicin; for MIC K. pneumoniae ATCC 4352: strain ATCC 4352; for MIC K. pneumoniae ATCC-BAA2146: strain ATCC-BAA2146; for MIC K. pneumoniae CCUG-59348: strain CCUG-59348; for MIC K. pneumoniae NCTC-13438: strain NCTC-13438
Outline: as §2

Escherichia coli [5] = experiment: MIC, sole activity (no second agent); conditions: in the absence of Rifampicin; for MIC E. coli ATCC25922: strain ATCC25922; for MIC E. coli NCTC9001: strain NCTC9001
Outline: as §2

Acinetobacter baumannii = experiment: MIC, sole activity (no second agent); conditions: in the absence of Rifampicin; for MIC A. baumannii ATCCBAA-747: strain ATCCBAA-747; for MIC A. baumannii NCTC 13423: strain NCTC13423
Outline: as §2

Pseudomonas aeruginosa [6] = experiment: MIC, compound in combination with a second agent (broth microdilution); conditions: 1:1 (wt:wt) combination with Rifampicin
Outline: as §1

[7] = MIC = total drug concentration, strain ATCC-BAA-2146
[8] = MIC = total drug concentration, strain CCUG-59348
[9] = MIC = total drug concentration, strain ATCC25922
[10] = MIC = total drug concentration, strain ATCC 27853
[11] = MIC = total drug concentration, strain CCUG 59626
[12] = MIC is total drug concentration

Row | Compound | MIC K. pneumoniae ATCC-BAA-2146 (Klebsiella pneumoniae [1]; [7]) | MIC K. pneumoniae CCUG-59348 (Klebsiella pneumoniae [1]; [8]) | MIC K. pneumoniae NCTC 13438 (Klebsiella pneumoniae [1]; MIC = total drug concentration) | MIC E. coli ATCC25922 (Escherichia coli [2]; [9]) | MIC E. coli NCTC9001 (Escherichia coli [2]; MIC = total drug concentration) | MIC P. aeruginosa ATCC 27853 (Pseudomonas aeruginosa [3]) | MIC K. pneumoniae ATCC 4352 (Klebsiella pneumoniae [4]) | MIC K. pneumoniae ATCC-BAA2146 (Klebsiella pneumoniae [4]) | MIC K. pneumoniae CCUG-59348 (Klebsiella pneumoniae [4]) | MIC K. pneumoniae NCTC-13438 (Klebsiella pneumoniae [4]) | MIC E. coli ATCC25922 (Escherichia coli [5]) | MIC E. coli NCTC9001 (Escherichia coli [5]) | MIC P. aeruginosa ATCC 27853 (Pseudomonas aeruginosa [6]; [10]) | MIC P. aeruginosa CCUG 59626 (Pseudomonas aeruginosa [6]; [11]) | other results
1 | CC(C)C[C@@H]1NC(=O)[C@@H](CC(C)C)NC(=O)[C@H](CCN)NC(=O)[C@@H](NC(=O)[C@H](CCN)NC(=O)[C@@H](NC(=O)C(O)C2CCCCC2)C(C)O)CCNC(=O)[C@H](C(C)O)NC(=O)[C@H](CCN)NC(=O)[C@H](CCN)NC1=O (single isomer, unassigned; isomer 2) [Example 32, 2(RS)-(2-Hydroxy-2-cyclohexyl)ethanoyl polymyxin E nonapeptide, TFA salt. Isomer 2] | 1 micrograms/mL | 2 micrograms/mL | 1 micrograms/mL | 0.5 micrograms/mL | 1 micrograms/mL | – | – | – | – | – | – | – | – | – | –
2 | CC(C)C[C@@H]1NC(=O)[C@@H](Cc2ccccc2)NC(=O)[C@H](CCN)NC(=O)[C@@H](NC(=O)[C@H](CCN)NC(=O)[C@@H](NC(=O)CCN)C(C)O)CCNC(=O)[C@H](C(C)O)NC(=O)[C@H](CCN)NC(=O)[C@H](CCN)NC1=O (stereo partly drawn) [Example 3, 3-Aminopropanoyl polymyxin B nonapeptide] (H-[βAla][Thr(3ξ)][Dab][Dab][Dab][dF]L[Dab][Dab][Thr(3ξ)]; lactam 4-C) | 1 micrograms/mL | 8 micrograms/mL | 2 micrograms/mL | – | 0.25 micrograms/mL | 0.125 micrograms/mL | 0.125 micrograms/mL | >32 micrograms/mL | >32 micrograms/mL | >32 micrograms/mL | 2 micrograms/mL | – | – | – | MIC P. aeruginosa ATCCCRM-9027 (Pseudomonas aeruginosa [3]): 0.25 micrograms/mL; MIC A. baumannii ATCCBAA-747 (Acinetobacter baumannii): 1 micrograms/mL; MIC A. baumannii NCTC 13423 (Acinetobacter baumannii): 1 micrograms/mL
3 | CC(C)C[C@@H]1NC(=O)[C@@H](Cc2ccccc2)NC(=O)[C@H](CCN)NC(=O)[C@@H](NC(=O)[C@H](CCN)NC(=O)[C@@H](NC(=O)CCC(C)(C)N)C(C)O)CCNC(=O)[C@H](C(C)O)NC(=O)[C@H](CCN)NC(=O)[C@H](CCN)NC1=O (stereo partly drawn) [Example 21, 4-Amino-4-methyl pentanoyl polymyxin B nonapeptide] (X14-[Thr(3ξ)][Dab][Dab][Dab][dF]L[Dab][Dab][Thr(3ξ)]; lactam 3-C) | 0.5 micrograms/mL | 8 micrograms/mL | 0.5 micrograms/mL | – | 0.25 micrograms/mL | <0.06 micrograms/mL | 0.25 micrograms/mL | >32 micrograms/mL | >32 micrograms/mL | >32 micrograms/mL | 4 micrograms/mL | >32 micrograms/mL | – | – | –
4 | CC(C)C[C@@H]1NC(=O)[C@@H](Cc2ccccc2)NC(=O)[C@H](CCN)NC(=O)[C@@H](NC(=O)[C@H](CCN)NC(=O)[C@@H](NC(=O)CC[C@@H](N)C(C)C)C(C)O)CCNC(=O)[C@H](C(C)O)NC(=O)[C@H](CCN)NC(=O)[C@H](CCN)NC1=O (stereo partly drawn) [Example 22, 4(R)-Amino-5-methylhexanoyl polymyxin B nonapeptide] (X9-[Thr(3ξ)][Dab][Dab][Dab][dF]L[Dab][Dab][Thr(3ξ)]; lactam 3-C) | 0.25 micrograms/mL | 4 micrograms/mL | 0.5 micrograms/mL | – | 0.125 micrograms/mL | 0.125 micrograms/mL | 0.5 micrograms/mL | >32 micrograms/mL | >32 micrograms/mL | >32 micrograms/mL | 8 micrograms/mL | >32 micrograms/mL | – | – | MIC P. aeruginosa ATCCCRM-9027 (Pseudomonas aeruginosa [3]): 0.5 micrograms/mL; MIC A. baumannii ATCCBAA-747 (Acinetobacter baumannii): 1 micrograms/mL; MIC A. baumannii NCTC 13423 (Acinetobacter baumannii): 0.5 micrograms/mL
5 | CC(C)C[C@@H]1NC(=O)[C@@H](Cc2ccccc2)NC(=O)[C@H](CCN)NC(=O)[C@@H](NC(=O)[C@H](CCN)NC(=O)[C@@H](NC(=O)CC[C@@H]2CCCN2)C(C)O)CCNC(=O)[C@H](C(C)O)NC(=O)[C@H](CCN)NC(=O)[C@H](CCN)NC1=O (stereo partly drawn) [Example 23, 3-(S)-(1-pyrrolidin-2-yl)-propionyl polymyxin B nonapeptide] (X13-[Thr(3ξ)][Dab][Dab][Dab][dF]L[Dab][Dab][Thr(3ξ)]; lactam 3-C) | 1 micrograms/mL | 8 micrograms/mL | 1 micrograms/mL | – | 0.25 micrograms/mL | 0.125 micrograms/mL | 1 micrograms/mL | >32 micrograms/mL | >32 micrograms/mL | >32 micrograms/mL | 16 micrograms/mL | >32 micrograms/mL | – | – | –
6 | CC(C)C[C@@H]1NC(=O)[C@@H](Cc2ccccc2)NC(=O)[C@H](CCN)NC(=O)[C@@H](NC(=O)[C@H](CCN)NC(=O)[C@@H](NC(=O)[C@H]2CC[C@@H](N)C2)C(C)O)CCNC(=O)[C@H](C(C)O)NC(=O)[C@H](CCN)NC(=O)[C@H](CCN)NC1=O (stereo partly drawn) [Example 34B, (1S,3R)-3- Aminocyclopentane carbonyl polymyxin B nonapeptide] (X8-[Thr(3ξ)][Dab][Dab][Dab][dF]L[Dab][Dab][Thr(3ξ)]; lactam 3-C) | – | – | – | <0.06 micrograms/mL | – | – | – | – | – | – | – | – | – | – | MIC P. aeruginosa ATCC CRM-9027 (Pseudomonas aeruginosa [6]; MIC = total drug concentration, strain ATCC CRM-9027): 0.25 micrograms/mL
7 | CC(C)C[C@@H]1NC(=O)[C@@H](Cc2ccccc2)NC(=O)[C@H](CCN)NC(=O)[C@@H](NC(=O)[C@H](CCN)NC(=O)[C@@H](NC(=O)[C@H](CCN)NC(=O)C2CCNCC2)C(C)O)CCNC(=O)[C@H](C(C)O)NC(=O)[C@H](CCN)NC(=O)[C@H](CCN)NC1=O (stereo partly drawn) [Example 53, Piperidin-4-yl carbonyl-polymyxin B decapeptide, trifluoroacetate salt] (H-[Inp][Dab][Thr(3ξ)][Dab][Dab][Dab][dF]L[Dab][Dab][Thr(3ξ)]; lactam 5-C) | 1 micrograms/mL | 4 micrograms/mL | – | 0.125 micrograms/mL | – | – | – | – | – | – | – | – | ≤0.06 micrograms/mL | ≤0.06 micrograms/mL | MIC K. pneumoniae ATCC 4352 (Klebsiella pneumoniae [1]; MIC = total drug concentration): ≤0.06 micrograms/mL
8 | CC(C)C[C@@H]1NC(=O)[C@@H](Cc2ccccc2)NC(=O)[C@H](CCN)NC(=O)[C@@H](NC(=O)[C@H](CCN)NC(=O)[C@@H](NC(=O)[C@H](CCCCN)NC(=O)C2CCNCC2)C(C)O)CCNC(=O)[C@H](C(C)O)NC(=O)[C@H](CCN)NC(=O)[C@H](CCN)NC1=O (stereo partly drawn) [Example 54, Piperidin-4-yl carbonyl-L-Lys-polymyxin B nonapeptide, trifluoroacetate salt] (H-[Inp]K[Thr(3ξ)][Dab][Dab][Dab][dF]L[Dab][Dab][Thr(3ξ)]; lactam 5-C) | 1 micrograms/mL | 4 micrograms/mL | – | 0.25 micrograms/mL | – | – | – | – | – | – | – | – | ≤0.06 micrograms/mL | ≤0.06 micrograms/mL | MIC K. pneumoniae ATCC 4352 (Klebsiella pneumoniae [1]; MIC = total drug concentration): 0.125 micrograms/mL
9 | CC(C)C[C@@H]1NC(=O)[C@@H](Cc2ccccc2)NC(=O)[C@H](CCN)NC(=O)[C@@H](NC(=O)[C@H](CCN)NC(=O)[C@@H](NC(=O)c2ccc(N3CCN(C)CC3)cc2)C(C)O)CCNC(=O)[C@H](C(C)O)NC(=O)[C@H](CCN)NC(=O)[C@H](CCN)NC1=O (stereo partly drawn) [Example 55, 4-(4-Methyl-piperazin-1-yl) benzoyl polymyxin B nonapeptide] (X17-[Thr(3ξ)][Dab][Dab][Dab][dF]L[Dab][Dab][Thr(3ξ)]; lactam 3-C) | 1 micrograms/mL | 4 micrograms/mL | – | 0.125 micrograms/mL | – | – | – | – | – | – | – | – | 0.25 micrograms/mL | 0.25 micrograms/mL | MIC P. aeruginosa ATCC 27853 (Pseudomonas aeruginosa [6]; [12]): 0.25 micrograms/mL; MIC P. aeruginosa CCUG 59626 (Pseudomonas aeruginosa [6]; [12]): 0.25 micrograms/mL; MIC K. pneumoniae ATCC-BAA-2146 (Klebsiella pneumoniae [1]; [12]): 1 micrograms/mL; MIC K. pneumoniae CCUG-59348 (Klebsiella pneumoniae [1]; [12]): 4 micrograms/mL; MIC E. coli ATCC25922 (Escherichia coli [2]; [12]): 0.125 micrograms/mL
